Source: patent US6673549B1, “Genes expressed in C3A liver cell cultures treated with steroids” (Incyte Corporation, priority 2000, dated 2004)

System: human C3A liver cells
Experiment: Microarray differential gene expression in human C3A liver cell cultures treated with steroids
Format: cell-based
Source text: Incyte clones represent template sequences derived from the LWESEQ GOLD assembled human sequence database (Incyte Genomics). In cases where more than one clone was available for a particular template, the 5′-most clone in the template was used on the microarray. The HUMAN GENOME GEM series 1-4 microarrays (Incyte Genomics) contain 28,626 array elements which represent 10,068 annotated clusters and 18,558 unannotated clusters. For the UNIGEM series microarrays (Incyte Genomics), Incyte clones were mapped to non-redundant Unigene clusters (Unigene database (build 46), NCBI; Shuler (1997) J Mol Med 75:694-698), and the 5′ clone with the strongest BLAST alignment (at least 90% identity and 100 bp overlap) was chosen, verified, and used in the construction of the microarray. The UNIGEM V microarray (Incyte Genomics) contains 7075 array elements which represent 4610 annotated genes and 2,184 unannotated clusters.
To construct microarrays, cDNAs were amplified from bacterial cells using primers complementary to vector sequences flanking the cDNA insert. […] Amplified cDNAs were then purified using […]-400 columns (APB). Purified cDNAs were immobilized on polymer-coated glass slides. Glass microscope slides (Corning, Corning N.Y.) were cleaned by ultrasound in 0.1% SDS and acetone, with extensive distilled water washes between and after treatments. Glass slides were etched in 4% hydrofluoric acid (VWR Scientific Products, West Chester Pa.), washed thoroughly in distilled water, and coated with 0.05% aminopropyl silane (Sigma Aldrich) in 95% ethanol. Coated slides were cured in a 110° C. oven. cDNAs were applied to the coated glass substrate using a procedure described in U.S. Pat. No. 5,807,522. One microliter of the cDNA at an average concentration of 100 ng/μl was loaded into the open capillary printing element by a high-speed robotic apparatus which then deposited about 5 nl of cDNA per slide.
Microarrays were UV-crosslinked using a […] UV-crosslinker (Stratagene), and then washed at room temperature once in 0.2% SDS and three times in distilled water. Non-specific binding sites were blocked by incubation of microarrays in 0.2% casein in phosphate buffered saline (Tropix, Bedford Mich.) for 30 minutes at 60° C. followed by washes in 0.2% SDS and distilled water as before.
In all cases, mRNA from untreated early confluent C3A cells were prepared in parallel as described below.
Cells were harvested and lysed in 1 ml of TRIZOL reagent (5×10^6 cells/ml; Life Technologies). Lysates were vortexed thoroughly, incubated at room temperature for 2-3 minutes, and extracted with 0.5 ml chloroform. The extract was mixed, incubated at room temperature for 5 minutes, and centrifuged at 15,000 rpm for 15 minutes at 4° C. The aqueous layer was collected, and an equal volume of isopropanol was added. Samples were mixed, incubated at room temperature for 10 minutes, and centrifuged at 15,000 rpm for 20 minutes at 4° C. The supernatant was removed, and the RNA pellet was washed with 1 ml of 70% ethanol, centrifuged at 15,000 rpm at 4° C., and resuspended in RNAse-free water. The concentration of the RNA was determined by measuring the optical density at 260 nm.
Poly(A) RNA was prepared using an OLIGOTEX mRNA kit (Qiagen) with the following modifications: OLIGOTEX beads were washed in tubes instead of on spin columns, resuspended in elution buffer, and then loaded onto spin columns to recover mRNA. To obtain maximum yield, the mRNA was eluted twice.
Each poly(A) RNA sample was reverse transcribed using MMLV reverse-transcriptase, 0.05 pg/μl oligo-d(T) primer (21mer), 1× first strand buffer, 0.03 units/ul RNAse inhibitor, 500 uM dATP, 500 uM dGTP, 500 uM dTTP, 40 uM dCTP, and 40 uM either dCTP-Cy3 or dCTP-Cy5 (APB).

## C[C@H]1C[C@H]2[C@@H]3CCC4=CC(=O)C=C[C@]4(C)[C@@]3(F)[C@@H](O)C[C@]2(C)[C@@]1(O)C(=O)CO [betamethasone]
Clone ID 220378
  Ave DE [log2] (C3A treated with steroid): 0.57 log2
Clone ID 615776
  Ave DE [log2] (C3A treated with steroid): 1.11 log2
Clone ID 619447
  Ave DE [log2] (C3A treated with steroid): 0.33 log2
Clone ID 686993
  Ave DE [log2] (C3A treated with steroid): 0.51 log2
Clone ID 689296
  Ave DE [log2] (C3A treated with steroid): 1.12 log2
Clone ID 1323327
  Ave DE [log2] (C3A treated with steroid): 1.00 log2
Clone ID 1329625
  Ave DE [log2] (C3A treated with steroid): 0.91 log2
Clone ID 1496011
  Ave DE [log2] (C3A treated with steroid): 0.60 log2
Clone ID 1501410
  Ave DE [log2] (C3A treated with steroid): −0.98 log2
Clone ID 1600180
  Ave DE [log2] (C3A treated with steroid): 0.77 log2
Clone ID 1798594
  Ave DE [log2] (C3A treated with steroid): 1.37 log2
Clone ID 1816768
  Ave DE [log2] (C3A treated with steroid): 0.24 log2
Clone ID 1824860
  Ave DE [log2] (C3A treated with steroid): 0.70 log2
Clone ID 1857044
  Ave DE [log2] (C3A treated with steroid): 0.89 log2
Clone ID 1951845
  Ave DE [log2] (C3A treated with steroid): 1.02 log2
Clone ID 2025128
  Ave DE [log2] (C3A treated with steroid): 1.20 log2
Clone ID 2046717
  Ave DE [log2] (C3A treated with steroid): 0.83 log2
Clone ID 2078880
  Ave DE [log2] (C3A treated with steroid): −0.75 log2
Clone ID 2170820
  Ave DE [log2] (C3A treated with steroid): 1.30 log2
Clone ID 2173002
  Ave DE [log2] (C3A treated with steroid): 0.98 log2
Clone ID 2173973
  Ave DE [log2] (C3A treated with steroid): 0.81 log2
Clone ID 2189061
  Ave DE [log2] (C3A treated with steroid): 0.23 log2
Clone ID 2222155
  Ave DE [log2] (C3A treated with steroid): 0.50 log2
Clone ID 2343836
  Ave DE [log2] (C3A treated with steroid): 0.63 log2
Clone ID 2404746
  Ave DE [log2] (C3A treated with steroid): 1.46 log2
Clone ID 2407620
  Ave DE [log2] (C3A treated with steroid): 0.02 log2
Clone ID 2430165
  Ave DE [log2] (C3A treated with steroid): 0.68 log2
Clone ID 2482388
  Ave DE [log2] (C3A treated with steroid): 1.14 log2
Clone ID 2660756
  Ave DE [log2] (C3A treated with steroid): 1.26 log2
Clone ID 2687356
  Ave DE [log2] (C3A treated with steroid): 1.23 log2
Clone ID 2695371
  Ave DE [log2] (C3A treated with steroid): 0.95 log2
Clone ID 2703282
  Ave DE [log2] (C3A treated with steroid): −0.85 log2
Clone ID 2734007
  Ave DE [log2] (C3A treated with steroid): 1.04 log2
Clone ID 2753065
  Ave DE [log2] (C3A treated with steroid): 0.75 log2
Clone ID 3229449
  Ave DE [log2] (C3A treated with steroid): 1.05 log2
Clone ID 3474091
  Ave DE [log2] (C3A treated with steroid): 0.23 log2
Clone ID 3528232
  Ave DE [log2] (C3A treated with steroid): 0.80 log2
Clone ID 3729593
  Ave DE [log2] (C3A treated with steroid): 0.55 log2
Clone ID 3876612
  Ave DE [log2] (C3A treated with steroid): 0.19 log2
Clone ID 3973687
  Ave DE [log2] (C3A treated with steroid): 1.47 log2
Clone ID 4087621
  Ave DE [log2] (C3A treated with steroid): 1.09 log2
Clone ID 4215034
  Ave DE [log2] (C3A treated with steroid): 1.50 log2
Clone ID 4403805
  Ave DE [log2] (C3A treated with steroid): 1.19 log2
Clone ID 4855265
  Ave DE [log2] (C3A treated with steroid): 1.24 log2
Clone ID 5206821
  Ave DE [log2] (C3A treated with steroid): 0.50 log2
Clone ID 5398701
  Ave DE [log2] (C3A treated with steroid): 1.10 log2
Clone ID 5521873
  Ave DE [log2] (C3A treated with steroid): 0.77 log2
Clone ID 5543385
  Ave DE [log2] (C3A treated with steroid): 1.15 log2
